Where two headings read alike, the source gives them in different places.
Tests used:
[1] = biological target: T1, TRα (Homo sapiens, UniProt P10827); assay: TR reporter-gene assay (Gal4 DBD hybrid, luciferase), TRα; assay type: cell-based
T1 construct: expressed in transfected cells; host or cells: HEK293
T1 sequence (P10827 1-410 isoform P10827-2): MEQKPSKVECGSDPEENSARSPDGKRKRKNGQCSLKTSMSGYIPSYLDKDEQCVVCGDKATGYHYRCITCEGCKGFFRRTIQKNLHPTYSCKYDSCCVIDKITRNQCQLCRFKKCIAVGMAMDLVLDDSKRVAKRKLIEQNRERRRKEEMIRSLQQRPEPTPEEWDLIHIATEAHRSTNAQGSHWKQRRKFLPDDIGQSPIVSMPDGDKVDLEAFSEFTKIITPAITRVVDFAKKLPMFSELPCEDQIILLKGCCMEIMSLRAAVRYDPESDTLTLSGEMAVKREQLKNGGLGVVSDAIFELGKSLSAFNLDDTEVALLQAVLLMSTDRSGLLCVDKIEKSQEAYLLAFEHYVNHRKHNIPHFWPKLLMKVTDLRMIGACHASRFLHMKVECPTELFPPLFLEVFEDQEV
Description: (§1) Compounds were tested for thyroid-hormone receptor activity using TR reporter-gene assays. Reporter cells used in the assays express a TR-receptor hybrid (either TRα or TRβ) in which the native N-terminal DNA binding domain (DBD) has been replaced with that of the yeast Gal4 DBD. The reporter gene, firefly luciferase, is functionally linked to the Gal4 upstream activation sequence (UAS). Both cell lines were derived from human embryonic kidney (HEK293).
(§2) Step 1: A suspension of reporter cells was prepared in cell recovery medium containing 10% charcoal-stripped FBS, and dispensed into assay plates. The plates were pre-incubated for 6 hours in a cell culture incubator (37° C./5% CO2/85% humidity).
(§3) These intermediate stocks were subsequently diluted directly into compound screening medium containing 10% charcoal-stripped FBS to generate “2×-concentration” treatment media (containing 0.2, 0.4 or 0.8% DMSO).
(§4) Step 3: At the end of the pre-incubation period, culture media were discarded from the assay plates, and all wells received 100 μl of compound screening medium. 100 μl of each of the previously prepared “2×-concentration” treatment media were dispensed into duplicate assay wells, thereby achieving the desired final treatment concentrations. The final concentration of DMSO in all assay wells was 0.1, 0.2 or 0.4%. Assay plates were incubated for 24 hr in a cell culture incubator (37° C./5% CO2/85% humidity).
(§5) Step 4: At the 24 h assay endpoint, treatment media were discarded and 100 µl/well of luciferase detection reagent was added. Relative luminometer units (RLUs) were quantified from each assay well.

[2] = biological target: T2, TRβ (Homo sapiens, UniProt P10828); assay: TR reporter-gene assay (Gal4 DBD hybrid, luciferase), TRβ; assay type: cell-based; conditions: for T3-SI (selectivity index, EC50 (TRα)/EC50 (TRβ)): class symbols
T2 construct: expressed in transfected cells; host or cells: HEK293
T2 sequence (P10828 217-461 limits assumed): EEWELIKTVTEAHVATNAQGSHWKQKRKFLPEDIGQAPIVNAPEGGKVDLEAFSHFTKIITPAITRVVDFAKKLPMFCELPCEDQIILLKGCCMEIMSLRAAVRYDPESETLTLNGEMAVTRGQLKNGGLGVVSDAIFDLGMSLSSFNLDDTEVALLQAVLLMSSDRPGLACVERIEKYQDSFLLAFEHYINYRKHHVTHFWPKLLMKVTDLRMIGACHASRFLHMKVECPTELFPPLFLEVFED
Description: as §1, §2, §3, §4, §5

[3] = HEK293-derived reporter cells, 24 hr treatment, read-out: TRα EC50
[4] = HEK293-derived reporter cells, 24 hr treatment, read-out: TRβ EC50

Row | Compound | EC50 [1, 3] [nM] | EC50 [2, 4] [nM] | T3-SI (selectivity index, EC50 (TRα)/EC50 (TRβ)) [2] | EC50 [1] [nM] | EC50 [2] [nM]
1 | Cc1cc(CSCC(=O)O)c(F)c(Cl)c1Cc1ccc(O)c(C(C)C)c1 [Compound 224, 2-((3-chloro-2-fluoro-4-(4-hydroxy-3-isopropylbenzyl)-5-methylbenzyl)thio)acetic acid] | 100 to 1000 | 100 to 1000 | ++ (3× < T3-SI ≤ 30×) |  | 
2 | CC(C)c1cc(Cc2c(Cl)cc(COCC(=O)O)cc2Cl)ccc1O [Compound 28, 2-((3,5-dichloro-4-(4-hydroxy-3-isopropylbenzyl)benzyl)oxy)acetic acid] | 10 to 100 | 10 to 100 | ++ (3× < T3-SI ≤ 30×) |  | 
3 | Cc1cc(SCC(=O)O)c(F)c(Cl)c1Cc1ccc(O)c(C(C)C)c1 [Compound 225, 2-((3-chloro-2-fluoro-4-(4-hydroxy-3-isopropylbenzyl)-5-methylphenyl)thio)acetic acid] | 100 to 1000 | 100 to 1000 | ++ (3× < T3-SI ≤ 30×) |  | 
4 | CC(C)c1cc(Cc2c(Cl)cc(OC(F)C(=O)O)cc2Cl)ccc1O (stereo not drawn) [Compound 81, 2-(3,5-dichloro-4-(4-hydroxy-3-isopropylbenzyl)phenoxy)-2-fluoroacetic acid] | 100 to 1000 | 100 to 1000 | ++ (3× < T3-SI ≤ 30×) |  | 
5 | CC(C)c1c(O)ccc(Cc2c(Cl)cc(CC3NC(=O)NC3=O)cc2Cl)c1F (stereo not drawn) [Compound 206, 5-(3,5-dichloro-4-(2-fluoro-4-hydroxy-3-isopropylbenzyl)benzyl)imidazolidine-2,4-dione] | > 1000 | > 1000 | +++ (T3-SI > 30×) |  | 
6 | CC(C)c1c(O)ccc(Cc2c(Cl)cc(CCC(=O)O)c(F)c2Cl)c1F [Compound 71, 3-(3,5-dichloro-2-fluoro-4-(2-fluoro-4-hydroxy-3-isopropylbenzyl)phenyl)propanoic acid] | 10 to 100 | 10 to 100 | ++ (3× < T3-SI ≤ 30×) |  | 
7 | CC(C)c1cc(Cc2c(Cl)cc(NCC(=O)O)c(F)c2Cl)ccc1O [Compound 75, (3,5-dichloro-2-fluoro-4-(4-hydroxy-3-isopropylbenzyl)phenyl)glycine] | 10 to 100 | 10 to 100 | ++ (3× < T3-SI ≤ 30×) |  | 
8 | CC(C)c1c(O)ccc(Cc2c(Cl)cc(C(=O)O)cc2Cl)c1F [Compound 61, 3,5-dichloro-4-(2-fluoro-4-hydroxy-3-isopropylbenzyl)benzoic acid] | > 1000 | > 1000 | ++ (3× < T3-SI ≤ 30×) |  | 
9 | CC(C)c1c(O)ccc(Cc2c(Cl)cc(CC(=O)O)cc2Cl)c1F [Compound 32, 2-(3,5-dichloro-4-(2-fluoro-4-hydroxy-3-isopropylbenzyl)phenyl)acetic acid] |  |  | ++ (3× < T3-SI ≤ 30×) | 10 to 100 | < 10
10 | Cc1c(F)c(CSCC(=O)O)cc(Cl)c1Cc1ccc(O)c(C(C)C)c1 [Compound 226, 2-((5-chloro-2-fluoro-4-(4-hydroxy-3-isopropylbenzyl)-3-methylbenzyl)thio)acetic acid] | 100 to 1000 | 100 to 1000 | ++ (3× < T3-SI ≤ 30×) |  | 
11 | CC(C)c1cc(Cc2c(Cl)cc(/C=C/CC(=O)O)cc2Cl)ccc1O [Compound 15, (E)-4-(3,5-dichloro-4-(4-hydroxy-3-isopropylbenzyl)phenyl)but-3-enoic acid] | 10 to 100 | 10 to 100 | ++ (3× < T3-SI ≤ 30×) |  | 
12 | CC(C)c1cc(Cc2c(Cl)cc(CCC(=O)O)c(F)c2Cl)ccc1O [Compound 65, 3-(3,5-dichloro-2-fluoro-4-(4-hydroxy-3-isopropylbenzyl)phenyl)propanoic acid] | 10 to 100 | 10 to 100 | ++ (3× < T3-SI ≤ 30×) |  | 
13 | C/C(=C\c1cc(Cl)c(Cc2ccc(O)c(C(C)C)c2)c(C)c1F)C(=O)O [Compound 128, (E)-3-(5-chloro-2-fluoro-4-(4-hydroxy-3-isopropylbenzyl)-3-methylphenyl)-2-methylacrylic acid] | 10 to 100 | 10 to 100 | ++ (3× < T3-SI ≤ 30×) |  | 
14 | CC(C)c1cc(Cc2c(Cl)cc(CCC(=O)O)cc2Cl)ccc1O [Compound 11, 3-(3,5-dichloro-4-(4-hydroxy-3-isopropylbenzyl)phenyl)propanoic acid] | 10 to 100 | 10 to 100 | ++ (3× < T3-SI ≤ 30×) |  | 
15 | Cc1cc(NCC(=O)O)cc(Cl)c1Cc1ccc(O)c(C(C)C)c1F [Compound 247, (3-chloro-4-(2-fluoro-4-hydroxy-3-isopropylbenzyl)-5-methylphenyl)glycine] | 10 to 100 | 10 to 100 | ++ (3× < T3-SI ≤ 30×) |  | 
16 | CC(C)c1cc(Cc2c(Cl)cc(S(=O)(=O)CC(=O)O)cc2Cl)ccc1O [Compound 93, 2-((3,5-dichloro-4-(4-hydroxy-3-isopropylbenzyl)phenyl)sulfonyl)acetic acid] | > 1000 | > 1000 | ++ (3× < T3-SI ≤ 30×) |  | 
17 | Cc1cc(NC(=O)CC(=O)O)cc(C)c1Cc1ccc(O)c(C(C)c2ccc(F)cc2)c1 (stereo not drawn) [Compound 4, 3-((4-(3-(1-(4-fluorophenyl)ethyl)-4-hydroxybenzyl)-3,5-dimethylphenyl)amino)-3-oxopropanoic acid] | 100 to 1000 | 10 to 100 | ++ (3× < T3-SI ≤ 30×) |  | 
18 | CC(c1ccc(F)cc1)c1cc(Cc2c(Cl)cc(CC(=O)O)cc2Cl)ccc1O (stereo not drawn) [Compound 9, 2-(3,5-dichloro-4-(3-(1-(4-fluorophenyl)ethyl)-4-hydroxybenzyl)phenyl)acetic acid] | 10 to 100 | < 10 | ++ (3× < T3-SI ≤ 30×) |  | 
19 | CC(C)c1cc(Cc2c(Cl)cc(CC(N)C(=O)O)cc2Cl)ccc1O (stereo not drawn) [Compound 143, 2-amino-3-(3,5-dichloro-4-(4-hydroxy-3-isopropylbenzyl)phenyl)propanoic acid] | 10 to 100 | 10 to 100 | + (T3-SI ≤ 3×) |  | 
20 | C=C(Cc1cc(Cl)c(Cc2ccc(O)c(C(C)C)c2F)c(Cl)c1)C(=O)O [Compound 201, 2-(3,5-dichloro-4-(2-fluoro-4-hydroxy-3-isopropylbenzyl)benzyl)acrylic acid] | < 10 | < 10 | ++ (3× < T3-SI ≤ 30×) |  | 
21 | C/C(=C\c1cc(Cl)c(Cc2ccc(O)c(C(C)C)c2F)c(Cl)c1)C(=O)O [Compound 205, (E)-3-(3,5-dichloro-4-(2-fluoro-4-hydroxy-3-isopropylbenzyl)phenyl)-2-methylacrylic acid] | < 10 | < 10 | ++ (3× < T3-SI ≤ 30×) |  | 
22 | CC(C)c1cc(Cc2c(Cl)cc(CNCC(=O)O)c(F)c2Cl)ccc1O [Compound 152, (3,5-dichloro-2-fluoro-4-(4-hydroxy-3-isopropylbenzyl)benzyl)glycine] | 100 to 1000 | 100 to 1000 | ++ (3× < T3-SI ≤ 30×) |  | 
23 | CC(C)c1cc(Cc2c(Cl)cc(C=C(C(=O)O)C(=O)O)cc2Cl)ccc1O [Compound 108, 2-(3,5-dichloro-4-(4-hydroxy-3-isopropylbenzyl)benzylidene)malonic acid] | 100 to 1000 | > 1000 | + (T3-SI ≤ 3×) |  | 

— patent US12528761B2, “Thyromimetics” (Autobahn Therapeutics, Inc., priority 2020, dated 2026)
